{
  "source": "BindingDB's records for patent US20250388560",
  "about": "(Hitgen, 2025)",
  "data": [
    {"target": "E3 ubiquitin-protein ligase TRIM21 (UniProt P19474)", "sequence (P19474 whole entry)": "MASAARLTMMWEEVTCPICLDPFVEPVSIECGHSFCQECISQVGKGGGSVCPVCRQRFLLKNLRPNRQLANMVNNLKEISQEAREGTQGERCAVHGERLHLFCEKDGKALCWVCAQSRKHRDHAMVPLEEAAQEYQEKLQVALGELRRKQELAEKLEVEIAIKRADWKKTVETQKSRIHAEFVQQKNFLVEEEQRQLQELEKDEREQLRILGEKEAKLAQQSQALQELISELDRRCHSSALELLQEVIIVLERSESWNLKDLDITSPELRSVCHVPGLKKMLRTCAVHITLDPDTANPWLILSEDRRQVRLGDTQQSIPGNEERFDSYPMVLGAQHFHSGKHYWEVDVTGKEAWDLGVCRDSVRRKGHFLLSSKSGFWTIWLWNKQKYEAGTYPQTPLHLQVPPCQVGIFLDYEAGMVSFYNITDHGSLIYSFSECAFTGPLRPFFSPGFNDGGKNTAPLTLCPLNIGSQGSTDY", "assay": "Detection of SPR Binding Assays (Surface Plasmon Resonance Binding Assay) of TRIM21 Compounds", "protocol": "The protein fixation buffer, the running buffer A and the running buffer B were prepared and filtered through a […] membrane prior to use. TRIM21 Protein FixationThe running buffer A was used as the protein fixation buffer. The protein fixation buffer and the TRIM21 protein were mixed to prepare a 40.0 µg/mL mixed solution.", "units": {"Kd": "µM"}, "values": [
      {"molecule": "Cc1cccc(-c2ccc(C(=O)N(C)CC3CCCCC3)c(S(C)(=O)=O)c2)c1", "note": "[US20250388560, Compound 44]", "Kd": "> 10"},
      {"molecule": "CSc1cc(F)ccc1-c1ccc(C(=O)N(C)CC2CCOCC2)c(S(C)(=O)=O)c1", "note": "[US20250388560, Compound 55]", "Kd": "< 0.01"},
      {"molecule": "CSc1ccccc1-c1ccc(C(=O)N(C)CCN2CCOCC2)c(S(C)(=O)=O)c1", "note": "[US20250388560, Compound 21]", "Kd": "> 10"},
      {"molecule": "CN(CC1CCCCC1)C(=O)c1ccc(-c2ccccc2)cc1S(C)(=O)=O", "note": "[US20250388560, Compound 58]", "Kd": "> 10"},
      {"molecule": "CN(CC1CCCCC1)C(=O)c1ccc(-c2cccc3[nH]ccc23)cc1S(C)(=O)=O", "note": "[US20250388560, Compound 50]", "Kd": "> 10"},
      {"molecule": "CN(CC1CCCCC1)C(=O)c1ccc(-c2cccc3occc23)cc1S(C)(=O)=O", "note": "[US20250388560, Compound 48]", "Kd": "> 10"},
      {"molecule": "CN(CC1CCCCC1)C(=O)c1ccc(-c2cccc3cc[nH]c23)cc1S(C)(=O)=O", "note": "[US20250388560, Compound 51]", "Kd": "> 10"},
      {"molecule": "CSc1ccccc1-c1ccc(C(=O)N(C)CCN2CCCCC2)c(S(C)(=O)=O)c1", "note": "[US20250388560, Compound 22]", "Kd": "> 10"},
      {"molecule": "COc1cc(F)ccc1-c1ccc(C(=O)N(C)Cc2cc[nH]c(=O)c2)c(S(C)(=O)=O)c1", "note": "[US20250388560, Compound 57]", "Kd": "< 0.01"},
      {"molecule": "CSc1cc(F)ccc1-c1ccc(C(=O)N(C)Cc2cc[nH]c(=O)c2)c(S(C)(=O)=O)c1", "note": "[US20250388560, Compound 56]", "Kd": "< 0.01"}
    ]}
  ]
}
